In paper PMC3360617, “Pan-Pathway Based Interaction Profiling of FDA-Approved Nucleoside and Nucleobase Analogs with Enzymes of the Human Nucleotide Metabolism” (PLoS ONE, 2012):
Blank lines part the entries; values can stand above or below the molecule they belong to.

Legend:
[1] = biological target: T1, Uridine phosphorylase 1 (Homo sapiens, UniProt Q16831); assay: thermal shift assay (DSLS), concentration-dependent; format: binding; details: read-out: delta_Tm
T1 construct: gene UPP1

[2] = biological target: T2, Guanine deaminase (Homo sapiens, UniProt Q9Y2T3); assay: as above; format: binding
T2 construct: gene GDA
T2 sequence (Q9Y2T3 1-454): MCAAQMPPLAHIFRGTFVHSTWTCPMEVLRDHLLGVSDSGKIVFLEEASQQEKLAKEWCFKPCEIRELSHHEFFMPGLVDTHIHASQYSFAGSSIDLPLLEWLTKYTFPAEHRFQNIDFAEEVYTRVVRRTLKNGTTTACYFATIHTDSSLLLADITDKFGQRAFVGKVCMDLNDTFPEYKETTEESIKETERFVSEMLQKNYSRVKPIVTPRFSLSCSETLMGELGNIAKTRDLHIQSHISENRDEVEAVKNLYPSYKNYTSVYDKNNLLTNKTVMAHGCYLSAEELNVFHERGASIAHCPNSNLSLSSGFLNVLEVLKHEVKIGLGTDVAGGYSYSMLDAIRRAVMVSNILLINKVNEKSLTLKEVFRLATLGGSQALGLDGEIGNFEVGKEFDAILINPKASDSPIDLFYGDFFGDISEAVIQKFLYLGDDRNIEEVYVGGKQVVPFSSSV

[3] = biological target: T3, deoxycytidine kinase (Homo sapiens, UniProt P27707); assay: as above; format: binding; details: read-out: 500 μM NA (+1 mM ATP)
T3 construct: gene DCK
T3 sequence (P27707 whole entry): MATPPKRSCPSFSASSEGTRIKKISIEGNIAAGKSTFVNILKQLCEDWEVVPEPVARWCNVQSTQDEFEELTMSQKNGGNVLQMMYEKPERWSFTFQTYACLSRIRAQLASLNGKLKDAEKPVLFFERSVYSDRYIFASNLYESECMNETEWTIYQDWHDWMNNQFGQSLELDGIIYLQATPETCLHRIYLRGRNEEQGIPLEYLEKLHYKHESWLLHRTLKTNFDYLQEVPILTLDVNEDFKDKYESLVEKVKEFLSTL

[4] = biological target: T1, Uridine phosphorylase 1; assay: HPLC enzyme kinetics with uridine (Lineweaver-Burk); also thermal shift ([…]°C at […]); format: biochemical
[5] = biological target: T2, Guanine deaminase; assay: co-crystal structure at […] Å; thermal shift (DSLS), concentration-dependent; format: binding; details: read-out: delta_Tm
[6] = biological target: T1, Uridine phosphorylase 1; assay: thermal shift assay (DSLS), concentration-dependent; enhanced by […] ribose-1-phosphate; format: binding; details: read-out: ΔTagg (NA+R1P)

T1 sequence (Q16831 whole entry): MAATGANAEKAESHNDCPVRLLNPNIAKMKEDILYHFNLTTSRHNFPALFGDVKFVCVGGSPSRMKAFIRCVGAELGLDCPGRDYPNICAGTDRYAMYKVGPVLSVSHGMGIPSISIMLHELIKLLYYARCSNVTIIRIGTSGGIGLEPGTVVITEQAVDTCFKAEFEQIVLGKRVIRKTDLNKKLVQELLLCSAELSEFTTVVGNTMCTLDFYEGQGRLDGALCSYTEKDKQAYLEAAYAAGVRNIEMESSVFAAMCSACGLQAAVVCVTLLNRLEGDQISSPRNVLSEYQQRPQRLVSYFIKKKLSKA

Compound: Nc1nc2c(ncn2CCC(CO)CO)c(=O)[nH]1 [penciclovir]
thermal shift assay (DSLS), concentration-dependent [2]: Thioguanine, ganciclovir, aciclovir, penciclovir, valaciclovir, flucytosine and idoxuridine showed concentration-dependent stabilization of GDA

Compound: Nc1nc2c(ncn2COCCO)c(=O)[nH]1 [aciclovir]
thermal shift assay (DSLS), concentration-dependent [2]: Interactions were detected between GDA and valaciclovir, aciclovir, penciclovir, ganciclovir, thioguanine and mercaptopurine

Compound: Nc1ccn([C@@H]2O[C@H](CO)[C@@H](O)C2(F)F)c(=O)n1 [Gemcitabine]
ΔTm at 500 µM [3]: 5.22 °C

Compound: Nc1nc2nc[nH]c2c(=S)[nH]1 [thioguanine]
thermal shift assay (DSLS), concentration-dependent [2]: followed in decreasing order by thioguanine, acyclovir, penciclovir, ganciclovir and mercaptopurine

Second part, the molecule after the results:

ΔTm at 500 µM [1]: 1.72 °C
Compound: O=c1[nH]c(=O)n([C@H]2C[C@H](O)[C@@H](CO)O2)cc1I [idoxuridine]

ΔTm at 500 µM [3]: 7.29 °C
Compound: Nc1ncn([C@H]2C[C@H](O)[C@@H](CO)O2)c(=O)n1 [Decitabine]

Ki [4]: 390 µM
Compound: Nc1ncnc2c1ncn2[C@@H]1O[C@H](CO)[C@@H](O)[C@@H]1O [vidarabine]

ΔTm at 1000 µM [5]: ~7 °C
Compound: CC(C)[C@H](N)C(=O)OCCOCn1cnc2c(=O)[nH]c(N)nc21 [valaciclovir]

ΔTm at 500 µM [6]: 3.78 °C
Compound: O=c1[nH]c(=O)n([C@H]2C[C@H](O)[C@@H](CO)O2)cc1C(F)(F)F [trifluridine]
